Test results published in patent US20250332143A1, “COMPOSITION COMPRISING ALOX5 INHIBITOR FOR PREVENTING OR TREATING SARCOPENIA” (PLUTO Inc., priority 2022, published 2025).

Experiments:
[1] = test system: differentiating C2C12 myoblasts; assay: Myogenesis of mouse myotubes differentiated in presence of compound; type: cell-based
Method: (§1) C2C12 murine skeletal muscle myoblasts were obtained from Koram Biotech (Republic of Korea). The cells were maintained in DMEM growth medium supplemented with 10% FBS, 1% penicillin, and streptomycin. When myoblasts proliferated to approximately 90%, they were differentiated into muscle fibers by treating them with DMEM differentiation medium supplemented with 2% HS, 1% penicillin, and streptomycin for 96 hours. Differentiated muscle fibers were treated with 10 μM Dex for 24 hours to induce sarcopenia. To evaluate the degree of differentiation of muscle cells, differentiating myoblasts were treated with the corresponding compound in differentiation medium for 24 or 48 hours.
The concentration of intracellular protein was measured using the Bradford assay (Bio-Rad, USA, CA), and electrophoresis was performed by loading on 10% and 12% polyacrylamide gels. Afterwards, the separated proteins were transferred to a PVDF membrane, and the primary antibody used was diluted 1:1000 in TBS-T containing 5% skim milk and incubated overnight at 4° C. Secondary antibodies were diluted 1:2000 and incubated for 35 minutes at room temperature (RT). Band intensity was measured using ImageJ 1.52 software (National Institutes of Health, USA), and intracellular protein was normalized to α-tubulin.
For quantitative real-time PCR, transcript levels of genes of interest were analyzed using the StepOnePlus real-time PCR system (Applied Biosystems, UK). Total RNA was reverse transcribed to prepare cDNA using AccuPower® RT PreMix (Bioneer Corporation). […] Denaturation was performed at 95° C. for 15 s, annealing was performed at 60° C. for 1 min, and extension was performed at 72° C. for 20 s with fluorescence detection at 72° C. after each cycle. After the final cycle, melting point analysis of all samples was performed within the range of 60 to 95° C. using continuous fluorescence detection. […] Results were expressed as relative expression levels for each gene. The synthesized cDNA was amplified by quantitative real-time PCR (qRT-PCR) or standard PCR.

aged C57BL/6J mice = assay: Sarcopenia model using aging mice; type: in vivo, mouse
Method: Male C57BL/6J mice over 21 months of age were divided into 2 groups of 5 and treated with drugs as follows: 1) 0.5% carboxyl methyl with 6.73% DMSO (Vehicle group) and 2) 50 mg/kg of malotilate (at a concentration of 50 mg/kg, 0.5% carboxyl methyl with 6.73% DMSO) (Malotilate group). Those were administered orally daily for 4 weeks. Afterwards, the function and condition of the muscles were analyzed.
Grip strength was measured with the BIO-GS3 grip strength test meter (Bioseb, FL, USA). Grip strength was measured by placing the mouse on a grid and gently pulling it back with all four paws until the mouse fell off the grid. The trials were conducted with a time interval of 30 seconds, and the largest value among the three trials was selected as the representative muscle strength.
Muscle fatigue was measured from two different models using Rotarod (Ugo Basile, Italy). One is a constant speed model that measures how long movement can be continued on a cylinder rotating at a constant speed, and the other model is an acceleration model that measures how fast the mouse can continue movement when the speed of the cylinder increases at regular intervals. Mice were trained to adapt from 5 rpm to 15 rpm one day before measurement in the above two models.
Before sacrifice, mice were anesthetized by intraperitoneally administering 22 mg/kg Ketamine (Yuhan, Republic of Korea) and 10 mg/kg xylazine (Bayer, Republic of Korea) by IP injection, and then samples were collected. Quadriceps, gastrocnemius, tibialis anterior and soleus muscles were sampled and their weights were measured. The muscles sampled for immunohistostaining were cultured overnight at 4° C. with 4% paraformaldehyde, fixed, embedded in paraffin solution, and stored at −80° C. Cutting and hematoxylin & eosin staining were carried out at the Animal Research Facility of the Gwangju Institute of Science and Technology, Republic of Korea. Hematoxylin & eosin staining was performed using the kit (Merck, Germany). The cross-sectional area of muscle fibers was measured using ImageJ 1.48 software (National Institutes of Health, USA).
Immunohistochemical staining was performed using myosin heavy chain types 2A and 2B (DSHB, IA, USA) and anti-laminin antibody (Abcam, Cambirdge, UK). Counterstain was stained with 1 μM DAPI solution. The cross-sectional area of muscle fibers was visualized using LEICA DM 2500 (Leica, Germany) and then measured using ImageJ 1.48 software (National Institutes of Health, USA).

Alox5 = Alox5 expression in Dex-treated myotubes (qPCR, Western blot); type: cell-based, mouse; settings: qPCR and Western blotting
Method: as §1
The concentration of intracellular protein was measured using the Bradford assay (Bio-Rad, USA, CA), and electrophoresis was performed by loading on 10% and 12% polyacrylamide gels. […] Band intensity was measured using ImageJ 1.52 software (National Institutes of Health, USA), and intracellular protein was normalized to α-tubulin.
For quantitative real-time PCR, transcript levels of genes of interest were analyzed using the StepOnePlus real-time PCR system (Applied Biosystems, UK). […] Denaturation was performed at 95° C. for 15 s, annealing was performed at 60° C. for 1 min, and extension was performed at 72° C. for 20 s with fluorescence detection at 72° C. after each cycle. […]

human myotubes = assay: Dexamethasone-induced atrophy of human skeletal myotubes, H&E, diameter; type: cell-based; settings: dexamethasone co-treatment
Method: Human-derived myoblasts were purchased from Thermo-Fisher Scientific (USA). Myoblasts were thawed using a water bath, centrifuged at 180 g for 5 min at room temperature, and washed with 20 mL DM. Myoblasts were then resuspended in DM and seeded in a 12-well plate at a density of 4.8×10^4 cells/well. After 48 hours, myoblasts were treated with compounds of interest for 24 hours. Myotubes were stained with H&E. After light microscopy analysis of DIC captured images (Olympus CKX41), myotubes were measured using ImageJ 1.48 software (National Institutes of Health, USA).

[2] = aged mice, 50 mg/kg orally daily, 4 weeks

For CC(C)OC(=O)C(C(=O)OC(C)C)=C1SC=CS1 [malotilate, Malotilate], the “expression of master gene regulators of the myogenic program (Pax7, Myf5, MyoG, Myh2)” value ([1]; after 24 h of treatment, qPCR) was “no significant changes”, the “phosphorylation level of Akt” value ([1]; differentiated myotubes) was “not significantly altered” and the “expression of differentiation marker Myh2” value ([1]; during myogenesis, Western blot) was “not affected”. For the same compound, the grip strength (aged C57BL/6J mice; [2]) was “significantly increased”, the “mean latency to fall” value (aged C57BL/6J mice; [2]) was “increased in malotilate-treated mice but did not reach statistical significance” and the quadriceps muscle mass (aged C57BL/6J mice; [2]) was “significantly increased”. The soleus muscle mass (aged C57BL/6J mice; [2]) was “significantly increased”, the “CSA of fast twitch fibers (types IIA and IIB)” value (aged C57BL/6J mice; aged mice, immunohistology) was “preserves” and the “average muscle fiber cross-sectional area” value (aged C57BL/6J mice; aged mice, quadriceps) was “increased”. The “proportion of large myofibers (>5000 μm^2)” value (aged C57BL/6J mice; aged mice, quadriceps) was “much larger proportion”, the skeletal muscle atrophy (aged C57BL/6J mice; animal model of sarcopenia due to aging) was “inhibited” and the Alox5 expression (Alox5) was “did not affect”. The “atrophy of human myotubes” value (human myotubes; 24 hours) was “can prevent atrophy”, the mean myotube diameter (human myotubes; human myotubes) was “increased” and the “proportion of myotubes of larger size” value (human myotubes; human myotubes) was “greater proportion”.
